Reference: ChEMBL document CHEMBL5291721, “A preclinical secondary pharmacology resource illuminates target-adverse drug reaction associations of marketed drugs” (Nat Commun, 2023)

Tests used:
[1] = biological target: T1, Alpha-2A adrenergic receptor (Homo sapiens, UniProt P08913); type: functional, cell-based
T1 sequence (P08913 whole entry): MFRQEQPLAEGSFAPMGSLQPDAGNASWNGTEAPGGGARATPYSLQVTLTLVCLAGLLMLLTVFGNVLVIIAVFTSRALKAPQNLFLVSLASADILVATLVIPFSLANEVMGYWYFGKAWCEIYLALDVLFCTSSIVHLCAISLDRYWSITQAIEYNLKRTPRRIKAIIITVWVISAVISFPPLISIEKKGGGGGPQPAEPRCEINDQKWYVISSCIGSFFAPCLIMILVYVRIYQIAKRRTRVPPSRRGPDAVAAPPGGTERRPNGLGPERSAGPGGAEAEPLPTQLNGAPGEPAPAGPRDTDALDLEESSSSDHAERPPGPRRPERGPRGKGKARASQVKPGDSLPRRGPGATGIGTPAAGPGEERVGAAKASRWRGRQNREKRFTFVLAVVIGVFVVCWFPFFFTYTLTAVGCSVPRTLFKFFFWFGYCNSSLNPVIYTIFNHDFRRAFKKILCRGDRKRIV

[2] = biological target: T2, Alpha-2C adrenergic receptor (Homo sapiens, UniProt P18825); type: functional
T2 sequence (P18825 whole entry): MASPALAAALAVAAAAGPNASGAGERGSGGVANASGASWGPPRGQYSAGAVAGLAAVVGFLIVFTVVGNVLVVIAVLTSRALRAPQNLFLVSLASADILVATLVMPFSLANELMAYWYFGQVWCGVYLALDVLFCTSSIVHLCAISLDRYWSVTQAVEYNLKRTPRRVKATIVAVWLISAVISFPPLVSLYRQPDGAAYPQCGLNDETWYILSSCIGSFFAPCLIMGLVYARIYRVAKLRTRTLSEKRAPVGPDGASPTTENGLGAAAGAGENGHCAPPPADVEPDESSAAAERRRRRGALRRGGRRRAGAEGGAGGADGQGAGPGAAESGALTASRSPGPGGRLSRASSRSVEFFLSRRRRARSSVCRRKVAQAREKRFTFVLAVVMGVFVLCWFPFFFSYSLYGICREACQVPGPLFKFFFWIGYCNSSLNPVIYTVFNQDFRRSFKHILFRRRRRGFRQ

B2 bradykinin receptor = biological target: T3, B2 bradykinin receptor (Homo sapiens, UniProt P30411)
T3 sequence (P30411 whole entry): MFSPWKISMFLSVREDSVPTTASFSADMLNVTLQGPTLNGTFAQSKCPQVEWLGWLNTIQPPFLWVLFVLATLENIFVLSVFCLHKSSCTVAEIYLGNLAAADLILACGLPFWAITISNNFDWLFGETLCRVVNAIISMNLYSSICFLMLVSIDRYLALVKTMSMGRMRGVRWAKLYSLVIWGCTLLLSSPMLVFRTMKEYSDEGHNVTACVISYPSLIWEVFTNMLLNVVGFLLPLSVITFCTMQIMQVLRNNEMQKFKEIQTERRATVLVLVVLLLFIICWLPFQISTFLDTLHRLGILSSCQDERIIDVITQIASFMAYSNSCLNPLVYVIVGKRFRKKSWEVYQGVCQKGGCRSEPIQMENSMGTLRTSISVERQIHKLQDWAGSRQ

[3] = biological target: T4, Cholecystokinin receptor type A (Homo sapiens, UniProt P32238)
T4 sequence (P32238 whole entry): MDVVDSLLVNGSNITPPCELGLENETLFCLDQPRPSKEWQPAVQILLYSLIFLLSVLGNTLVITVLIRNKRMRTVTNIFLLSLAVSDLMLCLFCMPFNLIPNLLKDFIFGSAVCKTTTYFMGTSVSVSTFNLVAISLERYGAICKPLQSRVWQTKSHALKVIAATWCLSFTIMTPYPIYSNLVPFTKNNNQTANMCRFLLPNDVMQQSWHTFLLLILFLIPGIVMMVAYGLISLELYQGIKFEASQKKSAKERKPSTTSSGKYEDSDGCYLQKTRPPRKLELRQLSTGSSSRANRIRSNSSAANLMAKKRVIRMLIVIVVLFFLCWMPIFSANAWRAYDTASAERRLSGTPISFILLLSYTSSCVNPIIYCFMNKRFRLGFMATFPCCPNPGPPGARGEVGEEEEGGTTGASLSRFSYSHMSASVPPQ

[4] = biological target: T5, Muscarinic acetylcholine receptor M2 (Homo sapiens, UniProt P08172); type: functional, cell-based
T5 sequence (P08172 whole entry): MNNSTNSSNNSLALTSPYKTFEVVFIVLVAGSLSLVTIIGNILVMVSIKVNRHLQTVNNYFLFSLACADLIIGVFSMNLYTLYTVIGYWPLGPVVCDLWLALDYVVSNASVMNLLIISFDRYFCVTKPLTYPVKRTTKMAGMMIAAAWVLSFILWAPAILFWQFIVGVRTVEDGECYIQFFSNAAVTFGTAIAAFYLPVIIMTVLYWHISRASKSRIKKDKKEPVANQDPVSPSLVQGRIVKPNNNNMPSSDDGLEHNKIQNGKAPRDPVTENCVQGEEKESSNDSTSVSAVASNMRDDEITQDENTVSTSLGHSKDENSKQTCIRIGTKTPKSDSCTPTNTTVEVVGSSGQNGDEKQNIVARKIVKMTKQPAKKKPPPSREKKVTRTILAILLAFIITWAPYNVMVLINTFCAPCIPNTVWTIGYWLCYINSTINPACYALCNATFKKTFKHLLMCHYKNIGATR

D(1A) dopamine receptor = D(1A) dopamine receptor (Homo sapiens, UniProt P21728); type: functional, cell-based
D(1A) dopamine receptor, sequence (P21728 whole entry): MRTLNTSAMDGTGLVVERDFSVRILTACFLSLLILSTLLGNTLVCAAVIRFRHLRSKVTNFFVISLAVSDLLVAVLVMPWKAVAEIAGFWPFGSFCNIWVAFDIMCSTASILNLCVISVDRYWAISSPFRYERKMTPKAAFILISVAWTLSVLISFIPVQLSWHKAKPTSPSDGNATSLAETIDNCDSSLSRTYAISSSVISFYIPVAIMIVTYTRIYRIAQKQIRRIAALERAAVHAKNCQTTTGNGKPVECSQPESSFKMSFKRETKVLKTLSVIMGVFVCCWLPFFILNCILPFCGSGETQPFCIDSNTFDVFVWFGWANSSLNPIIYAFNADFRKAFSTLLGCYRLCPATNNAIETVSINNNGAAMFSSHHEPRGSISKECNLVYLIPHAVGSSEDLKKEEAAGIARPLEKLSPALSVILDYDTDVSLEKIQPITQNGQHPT

[5] = biological target: 5-hydroxytryptamine receptor 2B (Homo sapiens, UniProt P41595); type: functional, cell-based
5-hydroxytryptamine receptor 2B, sequence (P41595 whole entry): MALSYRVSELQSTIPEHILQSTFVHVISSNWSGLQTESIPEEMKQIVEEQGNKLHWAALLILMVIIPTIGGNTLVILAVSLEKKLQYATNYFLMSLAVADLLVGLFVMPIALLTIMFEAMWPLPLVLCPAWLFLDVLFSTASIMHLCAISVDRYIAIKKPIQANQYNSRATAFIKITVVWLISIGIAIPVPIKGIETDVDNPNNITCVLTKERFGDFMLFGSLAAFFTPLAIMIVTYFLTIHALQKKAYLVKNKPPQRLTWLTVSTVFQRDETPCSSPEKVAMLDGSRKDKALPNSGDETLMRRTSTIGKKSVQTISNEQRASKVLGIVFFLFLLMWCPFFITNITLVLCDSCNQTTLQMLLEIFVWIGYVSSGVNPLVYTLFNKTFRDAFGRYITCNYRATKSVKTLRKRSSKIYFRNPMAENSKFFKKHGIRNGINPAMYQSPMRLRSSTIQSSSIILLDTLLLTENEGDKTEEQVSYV

[6] = biological target: Voltage-gated inwardly rectifying potassium channel KCNH2 (Homo sapiens, UniProt Q12809); type: functional; conditions: read-out: AC50
Voltage-gated inwardly rectifying potassium channel KCNH2, sequence (Q12809 whole entry): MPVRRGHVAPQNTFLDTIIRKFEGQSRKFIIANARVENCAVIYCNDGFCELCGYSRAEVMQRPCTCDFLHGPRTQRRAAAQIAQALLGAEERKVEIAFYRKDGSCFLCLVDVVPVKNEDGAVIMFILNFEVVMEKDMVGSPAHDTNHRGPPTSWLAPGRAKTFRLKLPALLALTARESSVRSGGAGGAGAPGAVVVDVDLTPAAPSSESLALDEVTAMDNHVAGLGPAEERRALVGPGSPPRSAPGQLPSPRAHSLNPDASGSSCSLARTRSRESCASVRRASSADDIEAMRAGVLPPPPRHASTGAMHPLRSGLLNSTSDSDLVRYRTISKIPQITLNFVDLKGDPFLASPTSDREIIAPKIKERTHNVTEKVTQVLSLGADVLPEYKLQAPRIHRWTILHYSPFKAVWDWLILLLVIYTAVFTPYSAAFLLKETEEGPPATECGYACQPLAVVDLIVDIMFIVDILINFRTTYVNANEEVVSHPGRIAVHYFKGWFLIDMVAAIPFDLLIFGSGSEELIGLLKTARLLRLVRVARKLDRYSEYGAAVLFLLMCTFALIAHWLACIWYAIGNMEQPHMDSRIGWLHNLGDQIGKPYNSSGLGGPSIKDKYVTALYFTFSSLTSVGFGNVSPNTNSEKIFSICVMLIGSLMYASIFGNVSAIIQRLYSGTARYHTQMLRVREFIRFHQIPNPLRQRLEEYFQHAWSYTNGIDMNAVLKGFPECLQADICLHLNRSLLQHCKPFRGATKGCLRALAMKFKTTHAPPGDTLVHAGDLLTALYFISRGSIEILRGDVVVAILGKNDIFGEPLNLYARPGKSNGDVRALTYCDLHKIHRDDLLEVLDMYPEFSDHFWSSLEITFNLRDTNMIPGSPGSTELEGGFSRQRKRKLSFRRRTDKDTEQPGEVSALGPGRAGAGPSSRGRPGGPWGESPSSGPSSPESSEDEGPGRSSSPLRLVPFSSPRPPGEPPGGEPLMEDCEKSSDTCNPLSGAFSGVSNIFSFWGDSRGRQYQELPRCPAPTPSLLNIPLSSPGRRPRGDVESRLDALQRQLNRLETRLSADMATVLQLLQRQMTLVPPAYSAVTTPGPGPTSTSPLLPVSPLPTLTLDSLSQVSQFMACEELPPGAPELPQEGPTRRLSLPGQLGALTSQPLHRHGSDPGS

[7] = biological target: T6, Equilibrative nucleoside transporter 1 (Homo sapiens, UniProt Q99808)
T6 sequence (Q99808 whole entry): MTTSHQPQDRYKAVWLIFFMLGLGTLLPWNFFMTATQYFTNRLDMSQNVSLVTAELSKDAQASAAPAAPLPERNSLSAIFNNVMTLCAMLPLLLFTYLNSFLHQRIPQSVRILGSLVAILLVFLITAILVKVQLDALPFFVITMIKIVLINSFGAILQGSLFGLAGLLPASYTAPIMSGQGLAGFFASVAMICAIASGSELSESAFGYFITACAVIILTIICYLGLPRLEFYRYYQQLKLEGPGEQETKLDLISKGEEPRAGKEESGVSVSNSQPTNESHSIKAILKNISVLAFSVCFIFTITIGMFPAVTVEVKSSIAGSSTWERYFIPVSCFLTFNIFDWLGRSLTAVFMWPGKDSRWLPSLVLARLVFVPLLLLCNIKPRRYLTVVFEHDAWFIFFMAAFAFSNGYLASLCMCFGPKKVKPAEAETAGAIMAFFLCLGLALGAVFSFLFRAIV
Further: assay procedure not described here.

SMILES | AC50 [1] [µM] | AC50 [2] [µM] | AC50 (B2 bradykinin receptor) [µM] | AC50 [3] [µM] | AC50 [4] [µM] | AC50 (D(1A) dopamine receptor) [µM] | AC50 [5] [µM] | AC50 [6] [µM] | AC50 [7] [µM]
CCC(C(=O)O)c1ccc(N2Cc3ccccc3C2=O)cc1 (stereo not drawn) [INDOBUFEN] | > 30 | > 30 | > 30 | > 30 | > 30 | > 30 | > 30 | > 30 | > 30
COC(=O)C1=C(C)NC(C)=C(C(=O)OC2CCCN(Cc3ccccc3)C2)C1c1cccc([N+](=O)[O-])c1 (stereo not drawn) [BENIDIPINE] | > 30 | 27 | > 30 | > 30 | > 30 | > 30 | > 30 | 2.01 | 8.2
C[C@H](CSC(=O)c1ccccc1)C(=O)N1C[C@@H](Sc2ccccc2)C[C@H]1C(=O)O [ZOFENOPRIL] | > 10 | > 10 | > 10 | > 10 | > 10 | > 10 | > 10 | > 30 | > 10
CO/N=C(\C(=O)N[C@@H]1C(=O)N2C(C(=O)O)=C(CSc3nnnn3C)CS[C@H]12)c1csc(N)n1 [CEFMENOXIME] | > 30 | > 30 | > 30 | > 30 | > 30 | > 30 | > 30 | > 30 | > 30
Cc1ccc(S(=O)(=O)NC(=O)NN2CC3CCCC3C2)cc1 (stereo not drawn) [GLICLAZIDE] | > 10 | > 30 | > 10 | > 10 | > 10 | > 30 | > 10 | > 30 | > 10
COc1ccccc1OCCNCC(O)c1ccc(C)c(S(N)(=O)=O)c1 (stereo not drawn) [AMOSULALOL] | 9.1 | 2.3 | > 30 | > 30 | > 30 | > 30 | 1.6 | 15 | > 30
C=CCN1CCCC1CNC(=O)c1cc(S(N)(=O)=O)cc(OC)c1OC (stereo not drawn) [VERALIPRIDE] | 26 | 10 | > 30 | > 30 | > 30 | > 30 | > 30 | 7.6 | > 30
CC(C)=CCC/C(C)=C/C=C/C(C)=C/C=C/C(C)=C/C=C/C=C(C)/C=C/C=C(C)/C=C/C=C(\C)CCC=C(C)C [LYCOPENE] | > 30 | > 30 | > 30 | > 30 | > 30 | > 30 | > 30 | > 30 | > 30
O=C(O)C[C@H](O)C[C@H](O)/C=C/c1c(C2CC2)nc2ccccc2c1-c1ccc(F)cc1 [PITAVASTATIN] | > 10 | > 30 | > 10 | > 10 | > 30 | > 10 | > 10 | > 30 | > 10
C[C@]1(O)CC[C@H]2[C@@H]3CCC4=CC(=O)CC[C@]4(C)[C@@]3(F)[C@@H](O)C[C@@]21C [FLUOXYMESTERONE] | > 10 | > 30 | > 10 | > 10 | > 10 | > 30 | > 10 | > 30 | > 10
C=CCC1(C(C)CC)C(=O)NC(=O)NC1=O (stereo not drawn) [TALBUTAL] | > 10 | > 10 | > 10 | > 10 | > 10 | > 10 | > 10 | > 30 | > 10
COC(=O)C1=C(C)NC(C)=C(C(=O)OC(C)(C)CN(C)CCC(c2ccccc2)c2ccccc2)C1c1cccc([N+](=O)[O-])c1 (stereo not drawn) [LERCANIDIPINE] | > 30 | > 30 | > 30 | > 30 | > 30 | > 30 | > 30 | > 30 | > 30
CC(C)OC(=O)CCC/C=C\C[C@@H]1[C@@H](CC[C@@H](O)CCc2ccccc2)[C@H](O)C[C@@H]1O [LATANOPROST] | > 30 | > 30 | > 30 | > 30 | > 30 | > 30 | > 30 | > 30 | > 30
O=C(O)C1=C(CSc2nnnn2CS(=O)(=O)O)CS[C@@H]2[C@H](NC(=O)[C@H](O)c3ccccc3)C(=O)N12 [CEFONICID] | > 30 | > 30 | > 30 | > 30 | > 30 | > 30 | > 30 | > 30 | > 30
C=CCC1(CC(C)C)C(=O)NC(=O)NC1=O [BUTALBITAL] | > 10 | > 30 | > 10 | > 10 | > 10 | > 30 | > 10 | > 30 | > 10
CCOC(=O)OC(C)OC1=C(C(=O)Nc2ccccn2)N(C)S(=O)(=O)c2ccccc21 (stereo not drawn) [AMPIROXICAM] | > 30 | > 30 | > 30 | > 30 | > 30 | > 30 | 10 | > 30 | > 30
CCOC(=O)[C@H](CCc1ccccc1)N[C@@H](C)C(=O)N1C(=O)N(C)C[C@H]1C(=O)O | > 30 | > 30 | > 30 | > 30 | > 30 | > 30 | > 30 | > 30 | > 30
